Measurements taken from ChEMBL document CHEMBL4477264, “Amino acid amides of piperic acid (PA) and 4-ethylpiperic acid (EPA) as NorA efflux pump inhibitors of Staphylococcus aureus” (2016).

target: T1, Quinolone resistance protein NorA (Staphylococcus aureus) (UniProt P0A0J7); assay: Inhibition of NorA efflux pump overexpressed in Staphylococcus aureus 1199B assessed as concentration required for four-fold reduction in ciprofloxacin MIC measured after 24 hrs by broth checkerboard method relative to control
T1 sequence (whole entry): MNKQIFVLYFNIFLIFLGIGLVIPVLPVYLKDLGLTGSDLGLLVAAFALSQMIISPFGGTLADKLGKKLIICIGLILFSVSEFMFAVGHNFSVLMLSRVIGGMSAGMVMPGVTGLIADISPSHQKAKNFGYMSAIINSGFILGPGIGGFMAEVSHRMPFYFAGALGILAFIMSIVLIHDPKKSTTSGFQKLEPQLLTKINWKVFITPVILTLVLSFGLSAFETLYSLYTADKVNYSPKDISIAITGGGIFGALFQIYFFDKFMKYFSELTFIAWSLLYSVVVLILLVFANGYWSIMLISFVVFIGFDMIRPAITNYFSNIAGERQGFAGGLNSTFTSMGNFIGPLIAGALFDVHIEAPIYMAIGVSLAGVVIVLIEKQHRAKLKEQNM

| Compound | MEC |
| --- | --- |
| CCC(/C=C/C(=O)N[C@H](C(=O)OC)C(C)C)=C\c1ccc2c(c1)OCO2 | > 50 µg/mL |
| O=C(O)/C=C/C=C/c1ccc2c(c1)OCO2 [PIPERIC ACID] | > 50 µg/mL |
| CCC(/C=C/C(=O)NC1(CC(=O)OC)CCC(C(C)(C)C)CC1)=C\c1ccc2c(c1)OCO2 (stereo unspecified) | > 50 µg/mL |
| CCC(/C=C/C(=O)NC1(CC(=O)OC)CCC(CC)CC1)=C\c1ccc2c(c1)OCO2 (stereo unspecified) | > 50 µg/mL |
| CCC1CCC(CC(=O)OC)(NC(=O)/C=C/C=C/c2ccc3c(c2)OCO3)CC1 (stereo unspecified) | 50 µg/mL |
| CCC(/C=C/C(=O)NC1(CC(=O)OC)CCCCC1)=C\c1ccc2c(c1)OCO2 | 50 µg/mL |
| CCC(/C=C/C(=O)O)=C\c1ccc2c(c1)OCO2 | > 50 µg/mL |
| CCC(/C=C/C(=O)N[C@@H](CC(C)C)C(=O)OC)=C\c1ccc2c(c1)OCO2 | > 50 µg/mL |
| CCC(/C=C/C(=O)N[C@@H](C)C(=O)OC)=C\c1ccc2c(c1)OCO2 | > 50 µg/mL |
| COC(=O)CC1(NC(=O)/C=C/C=C/c2ccc3c(c2)OCO3)CCC(C(C)(C)C)CC1 (stereo unspecified) | > 50 µg/mL |

target: T1, Quinolone resistance protein NorA (Staphylococcus aureus); assay: Inhibition of NorA efflux pump overexpressed in Staphylococcus aureus 1199B assessed as fold reduction in ciprofloxacin MIC at 12.5 ug/ml measured after 24 hrs by broth checkerboard method

| Compound | fold change (FC) |
| --- | --- |
| CCC(/C=C/C(=O)N[C@H](C(=O)OC)C(C)C)=C\c1ccc2c(c1)OCO2 | 0 |
| O=C(O)/C=C/C=C/c1ccc2c(c1)OCO2 [PIPERIC ACID] | 0 |
| CCC(/C=C/C(=O)NC1(CC(=O)OC)CCC(C(C)(C)C)CC1)=C\c1ccc2c(c1)OCO2 (stereo unspecified) | 0 |
| CCC(/C=C/C(=O)NC1(CC(=O)OC)CCC(CC)CC1)=C\c1ccc2c(c1)OCO2 (stereo unspecified) | 0 |
| CCC1CCC(CC(=O)OC)(NC(=O)/C=C/C=C/c2ccc3c(c2)OCO3)CC1 (stereo unspecified) | 0 |
| CCC(/C=C/C(=O)NC1(CC(=O)OC)CCCCC1)=C\c1ccc2c(c1)OCO2 | 2 |
| CCC(/C=C/C(=O)O)=C\c1ccc2c(c1)OCO2 | 0 |
| CCC(/C=C/C(=O)N[C@@H](CC(C)C)C(=O)OC)=C\c1ccc2c(c1)OCO2 | 0 |
| CCC(/C=C/C(=O)N[C@@H](C)C(=O)OC)=C\c1ccc2c(c1)OCO2 | 0 |
| COC(=O)CC1(NC(=O)/C=C/C=C/c2ccc3c(c2)OCO3)CCC(C(C)(C)C)CC1 (stereo unspecified) | 0 |

system: Staphylococcus aureus; assay: Antibacterial activity against wild-type Staphylococcus aureus 1199 expressing NorA efflux pump measured at every 3 mins interval for 30 mins by fluorescence analysis; assay type: functional

| Compound | MIC |
| --- | --- |
| CCC(/C=C/C(=O)N[C@@H](Cc1c[nH]c2ccccc12)C(=O)OC)=C\c1ccc2c(c1)OCO2 | > 50 mg/L |

system: Staphylococcus aureus; assay: Antibacterial activity against Staphylococcus aureus 1199B overexpressing NorA efflux pump measured after 24 hrs by broth checkerboard method; assay type: functional

| Compound | MIC |
| --- | --- |
| CCC(/C=C/C(=O)N[C@H](C(=O)OC)C(C)C)=C\c1ccc2c(c1)OCO2 | > 50 mg/L |
| O=C(O)/C=C/C=C/c1ccc2c(c1)OCO2 [PIPERIC ACID] | > 50 mg/L |
| CCC(/C=C/C(=O)NC1(CC(=O)OC)CCC(C(C)(C)C)CC1)=C\c1ccc2c(c1)OCO2 (stereo unspecified) | > 50 mg/L |
| CCC(/C=C/C(=O)NC1(CC(=O)OC)CCC(CC)CC1)=C\c1ccc2c(c1)OCO2 (stereo unspecified) | > 50 mg/L |
| CCC1CCC(CC(=O)OC)(NC(=O)/C=C/C=C/c2ccc3c(c2)OCO3)CC1 (stereo unspecified) | > 50 mg/L |
| CCC(/C=C/C(=O)NC1(CC(=O)OC)CCCCC1)=C\c1ccc2c(c1)OCO2 | > 50 mg/L |
| CCC(/C=C/C(=O)O)=C\c1ccc2c(c1)OCO2 | > 50 mg/L |
| CCC(/C=C/C(=O)N[C@@H](CC(C)C)C(=O)OC)=C\c1ccc2c(c1)OCO2 | > 50 mg/L |
| CCC(/C=C/C(=O)N[C@@H](C)C(=O)OC)=C\c1ccc2c(c1)OCO2 | > 50 mg/L |
| COC(=O)CC1(NC(=O)/C=C/C=C/c2ccc3c(c2)OCO3)CCC(C(C)(C)C)CC1 (stereo unspecified) | > 50 mg/L |
